Source: patent publication US8193200B2, “Antagonists of A2B adenosine receptors for treatment of inflammatory bowel disease” (University of Virginia Patent Foundation, priority 2007, dated 2012)

Assays:
IL-6 and MIP-2 mRNA = experiment: Real time PCR of proinflammatory cytokine mRNA in colonic tissue, DSS model; format: in vivo, mouse
Protocol: In the DSS-model proinflammatory cytokines were measured by real time PCR. Total RNA was extracted from DSS treated, DSS+ATL-801 and control colonic tissue using the TRizol reagent. After quantification, a reverse transcription (RT) reaction was performed with 2 μg of each sample and oligo-dT primer, using the SuperScript First strand synthesis system for RT-PCR (Invitrogen, CA). The real-time iCycler sequence detection system (Bio-Rad) was used for the real-time RT-PCR. […] The 36B4 expression levels were used as reference, and fold-induction was calculated using a standard curve. For graphical representation of quantitative PCR data, raw cycle threshold values (Ct values) obtained for treated mice were deducted from the Ct value obtained for internal 36B4 transcript levels, using the Ct method as follows: ΔΔCT=(Ct Target−Ct 36B4)treatment−(Ct Target−Ct 36B4) no treatment, and the final data were derived from 2^−ΔΔCT. […] In IL-10−/− model proinflammatory cytokines were measured by ELISA in organ cultures. […] Supernatants were harvested after 24 hours, centrifuged and stored at −80° C. before IL-6 and keratinocyte derived chemokine, KC levels were measured by ELISA. […] IL-8 was measured in the supernatants by ELISA.

A2b receptor = target: T1, A2b receptor (Mus musculus, UniProt Q60614); experiment: Ussing chamber Isc (chloride secretion) in murine colonic mucosal stripping; conditions: mouse colonic mucosa
T1 construct: Murine colonic mucosal stripping from the distal colon was mounted on Ussing chamber; from tissue; host or cells: mouse distal colon mucosa, stripped of external muscle
T1 sequence (Q60614 1-332): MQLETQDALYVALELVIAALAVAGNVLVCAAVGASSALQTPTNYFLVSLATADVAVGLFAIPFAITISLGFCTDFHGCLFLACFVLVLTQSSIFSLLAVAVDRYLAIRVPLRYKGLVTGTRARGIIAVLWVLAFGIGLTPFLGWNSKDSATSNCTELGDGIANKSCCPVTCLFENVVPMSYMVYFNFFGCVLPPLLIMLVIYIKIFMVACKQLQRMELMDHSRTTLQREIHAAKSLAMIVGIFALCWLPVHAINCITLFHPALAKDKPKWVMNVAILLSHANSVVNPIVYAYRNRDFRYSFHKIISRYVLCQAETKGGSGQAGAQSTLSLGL
Protocol: Electrophysiologic studies were performed as described previously Mice were euthanized by CO2/hypothermia. The colon was removed and opened along the mesenteric border. The colon was then stripped of its external muscle by blunt dissection. A of mucosa from distal colon was used for Using chamber studies. After a sustained baseline Isc, mucosal layers were stimulated with adenosine (100 μM) and forskolin (FSK 10 μM). Antagonist was added to both bathing solutions before stimulating with adenosine.

IL-6 and KC secretion = experiment: IL-6 and KC ELISA in colon organ culture supernatants, IL-10-/- model; format: in vivo, mouse
Protocol: In the DSS-model proinflammatory cytokines were measured by real time PCR. Total RNA was extracted from DSS treated, DSS+ATL-801 and control colonic tissue using the TRizol reagent. After quantification, a reverse transcription (RT) reaction was performed with 2 μg of each sample and oligo-dT primer, using the SuperScript First strand synthesis system for RT-PCR (Invitrogen, CA). The real-time iCycler sequence detection system (Bio-Rad) was used for the real-time RT-PCR. Briefly, 3 ng of reverse transcribed cDNA, 500 nM of gene-specific primers and the iQ SYBR Green Supermix (Biorad, Hercules, Calif.) were amplified at 50° C. for 2 min and 95° C. for 10 min, followed by 40 cycles of 95° C. for 15 s and 60° C. for 1 min. The 36B4 expression levels were used as reference, and fold-induction was calculated using a standard curve. For graphical representation of quantitative PCR data, raw cycle threshold values (Ct values) obtained for treated mice were deducted from the Ct value obtained for internal 36B4 transcript levels, using the Ct method as follows: ΔΔCT=(Ct Target−Ct 36B4)treatment−(Ct Target−Ct 36B4) no treatment, and the final data were derived from 2^−ΔΔCT. Primers used: IL-6 sense 5′-ACAAGTCGGAGGCTTAATTACACAT-3′ (SEQ ID NO:1) antisense 5′-TTGCCATTGCACAACTCTTTTC-3′ (SEQ ID NO:2), MIP-2 sense 5AGT GAA CTG CGC TGT CAA TGC-3′ (SEQ ID NO:3) antisense 5′ AGGCAAACTTTTTGACCGCC 3′ (SEQ ID NO:4). In IL-10−/− model proinflammatory cytokines were measured by ELISA in organ cultures. Colon organ cultures were prepared from IL-10^−/− mice with and with out ATL-801 along with piroxicam. Colons were dissected from mice and flushed with cold PBS to remove fecal matter. Each colon was cut in to 1 cm length and washed in HBSS with pencillin/streptomycin and cultured in serum free RPMI-1640 supplemented with penicillin and streptomycin. […] Supernatants were harvested after 24 hours, centrifuged and stored at −80° C. before IL-6 and keratinocyte derived chemokine, KC levels were measured by ELISA. […] IL-8 was measured in the supernatants by ELISA.

[1] = system: C57BL/6 mice with DSS-induced colitis; experiment: DSS-induced colitis: clinical and histological scoring, colon weight and length; format: in vivo, mouse; conditions: for Total Lesion Score (histological score): score range 0-11, DSS 9.1 ± 2.1
Protocol: Colitis was induced in male C57BL/6 mice by oral administration of DSS (molecular wt. 50000; ICN Biomedicals, Aurora, Ohio) at 3% (wt/vol) in tap water ad libitum for 6 days. Age-matched male wild-type C57BL6 mice receiving tap water served as controls. Mice were observed daily and evaluated for changes in body weight and development of clinical symptoms. Mice were given ATL-801 10 mg/Kg diet approximately 20 μg/day/mice) during the administration of DSS.
Assessment of body weights, stool consistency, and the presence of occult/gross blood by a guaic test (Hemoccult Sensa; Beckman Coulter, Fullerton, Calif.) were performed daily for each mouse. Colitis was quantified with a clinical and histological score, as described by Cooper, et. al. Clinical score was based on weight loss, stool consistency, and fecal blood (score range 0-12). Histological scoring was performed based on three variables, extent of inflammatory infiltrate, mucosal ulcers and severity of crypt (score range 0-11). IL-10^−/− mouse colon histological scoring (ranging from 0 to 4) was performed as described by Berg, et. al. to assess intestinal lesions and their severity.

## CCCn1c(=O)n(C2CC2)c(=O)c2[nH]c(-c3ccc(N(CC)C(=O)c4cccnc4)nc3)nc21 [ATL-801]
IL-6 and MIP-2 mRNA; DSS + antagonist, normalized to 36B4, DSS 7.2±1.7
  IL-6 mRNA in colonic mucosal tissue: 1.8±0.7 fold increase compared to untreated
IL-6 and MIP-2 mRNA; DSS+ATL-801, fold increase over control (FIG. 5B), DSS 28.1±3.8
  MIP-2 mRNA levels: 13.62±3.0
A2b receptor; ATL-801 100 μM before adenosine 100 μM, adenosine alone 7.9 μA
  ΔIsc, ATL-801+Adenosine: 1.9 μA
A2b receptor; ATL-801 100 μM, forskolin 10 μM
  ΔIsc, ATL-801+FSK: 10 μA
IL-6 and KC secretion; ATL-801 alone (data not shown)
  effect of ATL-801 alone on IL-6 or IL-8 levels: no effect
IL-6 and KC secretion; IL-10-/- mice, piroxicam + ATL-801, 24 h culture, piroxicam alone 1.9±0.3, untreated 0.7±0.1
  IL-6 levels in colon culture supernatant: 0.46 ± 0.1 ng/mL
IL-6 and KC secretion; IL-10-/- mice, piroxicam+ATL-801, piroxicam alone 5.6±0.6
  KC secretion in colon culture supernatant: 3.7 ± 0.8 ng/mL
[1]; 3% DSS 6 days + ATL 10 mg/Kg, DSS 2.6 ± 0.6
  Ulceration (histological assessment): 1.0 ± 1
[1]; 3% DSS 6 days + ATL 10 mg/Kg, DSS 2.8 ± 1.5
  Crypt Damage (histological assessment): 1.9 ± 0.6
[1]; 3% DSS 6 days + ATL 10 mg/Kg, DSS 3.7 ± 0.2
  Inflammation (histological assessment): 1.2 ± 0.2
[1]; 3% DSS 6 days + ATL 10 mg/Kg
  Total Lesion Score (histological score): 4.1 ± 1.8
[1]; 3% DSS 6 days + ATL 10 mg/Kg, listed as antagonist
  Total Lesion Score (histological score): 4.1±1.8
[1]; DSS 3% 6 days + ATL-801 10 mg/Kg in diet, score range 0-12, DSS alone 9.4±1.1
  clinical score (clinical disease activity score): 4.4±1.5
[1]; DSS 6 days + antagonist 10 mg/Kg, DSS alone 4.5±0.26 cm
  colon length: 6.04±0.16 cm
[1]; DSS + A2b antagonist, colon with solid stool pellets, DSS alone 0.26±0.03 g
  colon weight: 0.48 ± 0.03 g
[1]; DSS + A2b receptor antagonist, DSS-fed mice had watery diarrhea
  stool consistency: solid stools
[1]; antagonist without DSS, vehicle 6.5±0.25
  colon length, group not administered DSS: 7.5 cm
[1]; mice given ATL-801 alone, no DSS
  adverse effects on clinical score, ATL-801 alone: did not show any adverse affects on clinical score
[1]; no DSS
  histological signs of inflammation, water control group receiving antagonist: not detected
